Data on five compounds can be found in paper PMC8654832 (Scientific Reports, 2021).

One series deals with T1, hCK2α (Homo sapiens, UniProt P68400).
T1 construct: made in house; host or cells: Escherichia coli BL21(DE3), plasmid pET28
As to the kind of experiment: In vitro inhibition of hCK2α, ADP-Glo kinase assay. The conditions noted are these: 10 μM ATP, 10 μM peptide […], 20 min at 30 °C. It counts as biochemical. How it is done: The compound inhibitory activity was monitored based on the luminescence measured with the SpectraMax iD3 Multi-Mode Microplate Reader (Molecular Devices, San Jose, CA, USA), using the previously described method with the aid of ADP-Glo kinase assay (Promega, Walldorf, Germany)[35]. The measurements were carried in 96-well plate in volume of 25 μl in 20 mM Tris–HCl buffer (pH 7.5), containing 100 ng of hCK2α (1 μl), 10 μM CK2 substrate peptide […] (Biaffin GmbH & Co KG), 10 μM ATP, 20 mM MgCl2 and 2.5 μl of ligand serially diluted in DMSO. The reaction was initiated by adding the enzyme and kept going for 20 min at 30 °C.
(In general: ADP-Glo turns the ADP formed in a reaction into a luminescent signal.)

Series [1] deals with mitochondrial inner membrane potential (ΔΨ). In words: Mitochondrial inner membrane potential, Rhodamine 123 fluorescence quenching in isolated mitochondria. Particulars: for ligand concentration required to recover 50% of the initial fluorescence drop: Rhodamine 123, yeast mitochondria energized with EtOH, normalized to CCCP; for ligand concentration at which relative fluorescence c.a. 0.95 was reached / ligand concentration at which the membrane potential is almost fully uncoupled: Rhodamine 123, yeast mitochondria; for ligand concentration at which relative fluorescence c.a. 0.95 was reached: 1 = fully uncoupled (CCCP). From the text:
In response to variations in ΔΨ this dye accumulates proportionally inside the mitochondrial matrix, where its fluorescence is quenched, thus fluorescence changes reflect the changes in the IM potential[33],[34]. […] All the data were normalized relative to the fluorescence intensity after addition CCCP (set to 1).
To quantify the effect of ligand addition we have compared the ligand concentrations required to recover 50% of the initial fluorescence drop (dotted line), i.e. the average of value after addition of EtOH and fully decoupled ΔΨ.
At the end of each experiment the carbonyl cyanide-m-chlorophenyl hydrazone (CCCP, the IM potential uncoupler) was added at 4 μM for the normalization.

Series [2] is described as follows: Dynamic light scattering (DLS), aggregation in aqueous medium. In kind it is physicochemical. The conditions noted are these: 25 mM Tris–HCl pH 8, 0.5 M NaCl, 2% DMSO, 25 °C. How it is done:
Experiments were carried out at 25 °C with the DynaPro NanoStar 192-DPN apparatus (Wyatt Technology) equipped with 661 nm laser. The autocorrelation function for the light scattered by solute placed in Eppendorf disposable cuvettes (50–2000 μl) was measured in the range of 0.5 μs– 0.1 s at solute concentration for which short-time ACF signal approached 0.2. Solutions with 2% (v/v) DMSO content were prepared in 25 mM Tris–HCl (pH 8, 0.5 M NaCl) filtered with 220 nm pore size syringe filter. All samples were centrifuged (9000 g) for 3 min immediately before the experiment.

Series [3] concerns A-431 (epidermoid carcinoma). As to the kind of experiment: Cell viability, MTT assay. Particulars: read-out: Cell viability data, IC50.
For series [4], the system named is HEPG2 (hepatocellular carcinoma). As to the kind of experiment: Cell viability, MTT assay. Particulars: read-out: Cell viability data, IC50. In general terms: Formazan colour is commonly taken as a measure of viable cells.
Series [5] concerns HCT116 (colorectal carcinoma). As to the kind of experiment: Cell viability, MTT assay. Particulars: read-out: Cell viability data, IC50.
Series [6] concerns HCT116p53-/- (colorectal carcinoma). In words: Cell viability, MTT assay. Particulars: 72 h, read-out: Cell viability data, IC50.
Series [7] concerns the target T2, catalytic subunit of human protein kinase CK2 (hCK2α) (Homo sapiens, UniProt P68400). As to the kind of experiment: Isothermal titration calorimetry (ITC), reverse mode.
For series [8], the target named is T2, catalytic subunit of human protein kinase CK2 (hCK2α). As to the kind of experiment: Microscale thermophoresis (MST) pseudo-titration. It counts as binding. Also on record: made in house; host or cells: Escherichia coli BL21(DE3), plasmid pET28. How it is done: Samples of protein (50 nM in 25 mM Hepes buffer pH 8 with 0.5 M NaCl and 1%DMSO content v/v) labeled with Monolith His-Tag Labeling Kit RED-tris-NTA kit (NanoTemper Technologies) were prepared with varying ligand concentration according to previously described protocol. The measurements were performed using Monolith NT.115 (NanoTemper Technologies) apparatus in standard capillaries (Nanotemper Technologies). For each ligand six independent pseudo-titration experiments, each with 16 ligand dilutions, were performed. […] The model of two independent binding sites, implemented in origin, has been already described and tested. It is worth noting that the used method of data treatment goes beyond the standard MST software capabilities.

Series [9] shares this target. Further details: made in house; host or cells: Escherichia coli BL21(DE3), plasmid pET28. The conditions noted are these: DSF, binding to hCK2α, cited from earlier work. (Differential scanning fluorimetry follows unfolding on heating by fluorescence.)
[10] abbreviates: second, weak site (solvent exposed region at alpha/beta interface), read-out: Kd2.
The mark [11] stands for this setting: strongly binding site (ATP-binding site), pH 8, 0.5 M NaCl, 1% DMSO, read-out: Kd1.

Each structure is given as a SMILES string. Read-outs that look alike come from different tables or passages of the source.

T1 sequence (P68400 whole entry): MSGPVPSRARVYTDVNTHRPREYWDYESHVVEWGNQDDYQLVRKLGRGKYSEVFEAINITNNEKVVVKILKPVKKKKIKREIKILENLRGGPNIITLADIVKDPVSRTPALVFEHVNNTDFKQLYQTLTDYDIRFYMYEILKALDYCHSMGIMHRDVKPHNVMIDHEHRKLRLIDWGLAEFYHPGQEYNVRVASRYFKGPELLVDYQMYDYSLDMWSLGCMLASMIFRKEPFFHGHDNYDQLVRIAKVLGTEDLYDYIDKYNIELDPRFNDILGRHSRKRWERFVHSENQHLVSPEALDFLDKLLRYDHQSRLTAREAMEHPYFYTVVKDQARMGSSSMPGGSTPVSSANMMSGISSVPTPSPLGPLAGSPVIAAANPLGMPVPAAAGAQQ
T2 sequence (P68400 whole entry): as above

A word on the IC50: it is the concentration needed to halve the response being measured. Consider `Brc1c(I)c(I)c(Br)c2[nH]nnc12` [BIIB, 4,7-dibromo-5,6-diiodo-1H-benzotriazole], for which the IC50 worked out at 230 ± 150 nM at hCK2α; 2200 ± 300 nM in series [3] (Homo sapiens, A-431, 72 h); 1500 ± 300 nM in [4] (Homo sapiens, HepG2, 72 h); 1800 ± 300 nM in [5] (Homo sapiens, HCT-116, 72 h); 2500 ± 200 nM in series [6] (Homo sapiens). Besides, the “ligand concentration required to recover 50% of the initial fluorescence drop” value in [1] was “less than 2 µM”. For the same compound, in series [1], the “ligand concentration at which relative fluorescence c.a. 0.95 was reached” value is given as about 4 µM. In series [2], the “solute concentration at which the similar ACF distribution (nano-aggregates, radius 50–100 nm) was observed” value is on record as 40 µM. Moreover, the Kd in series [7] was found to be 1.3 ± 1.4 nM; in series [7] (read-out: Kd2, ITC, second site (solvent exposed region at alpha/beta interface)), 82 ± 42 nM; in series [8] (setting [10]) it was 43 ± 22 nM; in [8] (setting [11]), 3 ± 6 nM. The ΔS1 in series [7] (ITC, 25 °C, strongly binding site) amounted to 123 ± 10 J/mol/K. Also, the ΔS2 in series [7] (ITC, second site) is on record as 93 ± 5 J/mol/K. For the same compound, the ΔTm in [9] (literature data ref 20) is 10.8 ± 0.1[20] K.

In the case of `Brc1cc2nn[nH]c2cc1Br` [HBBH, 5,6-dibromo-1H-benzotriazole, reference compound], the IC50 was found to be 1190 ± 530 nM on hCK2α; 12000 ± 2000 nM in series [3] (Homo sapiens, A-431, 72 h); 18000 ± 4000 nM in series [4] (Homo sapiens, HepG2, 72 h); 19000 ± 6000 nM in [5] (Homo sapiens, HCT-116, 72 h); 13000 ± 3000 nM in [6] (Homo sapiens). Besides, in [1], the “ligand concentration at which the membrane potential is almost fully uncoupled” value is listed as about 15 µM. In addition, in series [1], the “ligand concentration required to recover 50% of the initial fluorescence drop” value is on record as over 5 µM. Besides, in series [1], the “ligand concentration at which relative fluorescence c.a. 0.95 was reached” value is about 12 µM. In addition, the “solute concentration at which the similar ACF distribution (nano-aggregates, radius 50–100 nm) was observed” value in series [2] is on record as 160 µM. The Kd in series [7] was 34 ± 4 nM; in series [8] (setting [10]), 327 ± 95 nM; in series [8] (setting [11]), 29 ± 13 nM. Moreover, in series [9] (literature data ref 18), the ΔTm is 7.4 ± 0.1[18] K.

With `Ic1cc2nn[nH]c2cc1I` [HIIH, 5,6-diiodo-1H-benzotriazole], the IC50 against hCK2α stood at 780 ± 290 nM; in series [3] (Homo sapiens, A-431, 72 h), 5300 ± 700 nM; in series [4] (Homo sapiens, HepG2, 72 h) it was 3300 ± 400 nM; in series [5] (Homo sapiens, HCT-116, 72 h) it was 6100 ± 1300 nM; in series [6] (Homo sapiens) it was 9400 ± 1400 nM. Besides, the “ligand concentration at which the membrane potential is almost fully uncoupled” value in series [1] is given as about 15 µM. The “ligand concentration required to recover 50% of the initial fluorescence drop” value in series [1] was over 5 µM. For the same compound, the “ligand concentration at which relative fluorescence c.a. 0.95 was reached” value in series [1] was about 12 µM. Further, the figures for the Kd in [7], in [8] (setting [10]) and in series [8] (setting [11]) were 22 ± 4 nM, 374 ± 83 nM and 15 ± 7 nM, respectively. Moreover, the ΔTm in series [9] (literature data ref 20) is 8.3 ± 0.1[20] K.

Regarding `Brc1c(Br)c(Br)c2[nH]nnc2c1Br` [TBBt, 4,5,6,7-tetrabromo-1H-benzotriazole], the IC50 stood at 7800 ± 1200 nM in series [3] (Homo sapiens, A-431, 72 h); 13000 ± 2000 nM in series [4] (Homo sapiens, HepG2, 72 h); 23000 ± 9000 nM in series [5] (Homo sapiens, HCT-116, 72 h); 48000 ± 18000 nM in series [6] (Homo sapiens).

Turning to `N.N.[Cl][Pt][Cl]` [cisPt, cisplatin], the IC50 in series [3] (A-431, MTT, 72 h, fitted to restricted low-concentration data) worked out at 2020 ± 60 nM; in [4] (HEPG2, MTT, 72 h, fitted to restricted low-concentration data), 2430 ± 140 nM; in [5] (HCT116, MTT, 72 h, fitted to restricted low-concentration data), 4700 ± 600 nM; in series [6] (HCT116p53-/-, MTT, fitted to restricted low-concentration data) it was 2940 ± 130 nM.
